This passage reports Km results from publication PMC12133000 (PLOS One, 2025).

The test system of this assay is rat liver microsomes (RLMs). Nature of the assay: Michaelis-Menten kinetics (Km) of rivaroxaban in RLMs. In kind it is in vitro ADME. The conditions noted are these: read-out: Km of rivaroxaban. As to the method: Three samples from each group were incubated, centrifuged, and separated as described earlier. The LC–MS/MS method was used to detect rivaroxaban metabolites. Km was calculated by applying the Michaelis–Menten equation using Prism v. 9.0 (GraphPad Software, MA, USA).

For the compound `O=C(NC[C@H]1CN(c2ccc(N3CCOCC3=O)cc2)C(=O)O1)c1ccc(Cl)s1` [rivaroxaban, Rivaroxaban], the Km (usually the concentration of substrate that gives half-maximal velocity) was 17.6 µM.
